Experimental findings from patent US20220411782A1, “PHAGE COMPOSITIONS COMPRISING CRISPR-CAS SYSTEMS AND METHODS OF USE THEREOF” (priority 2019, published 2022) are described below.

This assay has as its system E. coli strain LFP 527. The assay can be described thus: Mouse UTI model, pooled CFU results of Examples 7 and 8 (Example 9). Format: in vivo, Escherichia coli in mice (Mus musculus). Conditions: for # samples <LOD / Mean log CFU/g: ciprofloxacin IV 5 mg/kg; for Delta from LR: ciprofloxacin IV compared with intravenous LR. The method, then: The crPhage cocktail was a mixture of phages p0033L-10 (ATCC No. PTA-126316), p004k-5 (ATCC No. PTA-126319), and p0071-16 (ATCC No. PTA-126320) at concentrations of 2×10^11 plaque forming units (PFU)/mL/phage (“high”), 2×10^9 PFU/mL/phage (“medium”), or 2×10^7 PFU/mL/phage (“low”). A 50 μl dose thus provided 1×10^10 PFU/phage (“high”), 1×10^8 PFU/phage (“medium”), or 1×10^6 PFU/phage (“low”). Lactated Ringer's (LR) solution served as a negative control and ciprofloxacin (Cipro) served as a positive control.
Female C3H/HeN mice were infected with E. coli strain LFP 527 via intraurethral (IU) instillation. Beginning 48 hours after infection, a test article of phage cocktail containing p0033L-10, p004k-5, and p0071-16 was administered at time zero and every 12 hours for 48 hours (for a total of 5 doses). Phage cocktail with a range of phage concentrations (Table 16) or vehicle was delivered either intravenously (IV) or by IU instillation into the bladder. The phage cocktails were prepared using LR.

Counter-ions that a name gives are not always drawn.

On to `O=C(O)c1cn(C2CC2)c2cc(N3CCNCC3)c(F)cc2c1=O` [ciprofloxacin, Ciprofloxacin hydrochloride], for which the “# samples <LOD” value (Bladder, 54 hours) is reported as 0; the “# samples <LOD” value (Bladder, 102 hours) turned out to be 1; the “# samples <LOD” value (Kidney, 54 hours) stood at 0; the “# samples <LOD” value (Kidney, 102 hours) is given as 3. For the same compound, the “Mean log CFU/g” value reads like this: (Bladder, 54 hours) 4.96 log CFU/g; (Bladder, 102 hours) 3.16 log CFU/g; (Kidney, 54 hours) 3.47 log CFU/g; (Kidney, 102 hours) 2.03 log CFU/g. Moreover, the “Delta from LR” value is, setting by setting: (Bladder, 54 hours) −1.55 (n.s.) log CFU/g; (Bladder, 102 hours) −2.23 (p = 0.0033) log CFU/g; (Kidney, 54 hours) −1.66 (n.s.) log CFU/g; (Kidney, 102 hours) −3.11 (p <0.0001) log CFU/g.
